Laboratory results taken from paper PMC11053098, “Unravelling and reconstructing the biosynthetic pathway of bergenin” (Nature Communications, 2024).

Tests used:
AjOMT2 = test system: T1, AjOMT2; experiment: HPLC methyltransferase assay; format: biochemical, Ardisia japonica; conditions: co-substrate SAM; metal-dependent (Mg2+); details in Supplementary Methods 5-7; read-out: apparent Km
T1 construct: cloned in pET28a (BamHI/EcoRI), E. coli Transetta (DE3), Ni-NTA purified

AjCGT1 = test system: T2, AjCGT1; experiment: HPLC glycosyltransferase assay; format: biochemical, Ardisia japonica; conditions: co-substrate UDP-Glc; details in Supplementary Methods 5-7; substrate unstable in buffer; read-out: apparent Km
T2 construct: full-length cDNA in pET28a (BamHI/EcoRI), E. coli Transetta (DE3), Ni-NTA purified

SMILES | Km (AjOMT2) | Km (AjCGT1)
O=C(O)c1cc(O)c(O)c(O)c1 [compound 2, GA] | 72 µM | 
O=C1O[C@@H]2[C@@H](O)[C@H](O)[C@@H](CO)O[C@H]2c2c1cc(O)c(O)c2O [compound 6, norbergenin] | 494 µM | 
COc1c(O)cc(C(=O)O)cc1O [compound 3, 4-OMGA] |  | 265 µM
